Measurements taken from patent US11059844B2, “Immune stimulating macrolides” (ISR IMMUNE SYSTEM REGULATION HOLDING AB (PUBL), priority 2017, dated 2021).

What was measured:
[1] = test system: E. coli, S. salivarius, L. casei, B. longum or M. luteus; experiment: Direct antibacterial activity, summary over all strains tested; assay type: cell-based; conditions: summary in words of Table 1
Method: The bioactivity of macrolide compounds against 4 strains of common gut bacteria (Escherichia coli, Streptococcus salivarius subsp. salivarius, Lactobacillus casei and Bifidobacterium longum subsp. infantis) and common mammalian skin isolate Micrococcus luteus, was assessed using the Minimum Inhibitory Concentration (MIC) assay. Bacterial strains were purchased from DSMZ (Brunswick, Germany) except M. luteus which was obtained from NCIMB, and stored in 20% glycerol at −80° C. Stock solutions (100% DMSO) of positive controls (azithromycin and erythromycin), and of test compounds 1 and 2 were diluted in broth to working stock concentrations of 256 μg/ml (final assay testing concentration range 128 μg/ml to 0.00391 μg/ml). Stock solutions of all other compounds were diluted in broth to working stock concentrations of 128 μg/ml (final assay testing concentration range 64 μg/ml to 0.00195 μg/ml). Bacterial strains were cultivated in appropriate broth in an anaerobic chamber at 37° C., except for M. luteus which was incubated aerobically at 37° C. 18 h cultures were diluted in broth to an OD595 of 0.1 and then further diluted 1:10. In 96-well plates, in duplicate, 200 μl working stock of test compound was transferred to well 1 and serially diluted (1:2) in broth. 100 μl bacterial suspension was aliquoted into each well and mixed thoroughly. Appropriate sterility controls were included and plates were incubated in an anaerobic chamber, or aerobically (M. luteus) at 37° C. for 18 h. The MIC was determined to be the concentration of test compound in the first well with no visible growth.

human TLR2 = target: T1, human TLR2 (Homo sapiens, UniProt O60603); experiment: TLR2 reporter assay (HEK-293-TLR, SEAP); assay type: cell-based
T1 construct: host or cells: recombinant HEK-293-TLR cell lines
Method: Samples and controls were tested in duplicate on recombinant HEK-293-TLR cell lines using a cell reporter assay at Invivogen using their standard assay conditions. These cell lines functionally over-express human TLR2 protein as well as a reporter gene which is a secreted alkaline phosphatase (SEAP). The production of this reporter gene is driven by an NFkB inducible promoter. The TLR reporter cell lines activation results are given as optical density values (OD).
20 μl of each test article were used to stimulate the hTLR2 reporter cell lines in a 200 μl of final reaction volume. Samples were tested in duplicate, with at least two concentrations tested—20 uM and 10 uM.
Compounds were tested using a TLR2 reporter assay (see general methods) that measured for stimulation of the TLR2 receptor. Stimulatory effect was measured as an increase in optical density (OD) due to release of secreted alkaline phosphatase (SEAP) and is shown in table 4: […]

[2] = test system: peripheral blood mononuclear cells (PBMC); experiment: Marker expression on PBMC by flow cytometry; assay type: cell-based, Human; conditions: 24 h
Method: Human peripheral blood mononuclear cells (PBMCs) were purified from healthy donors with Ficoll-Paque density centrifugation. Cells were cultured in complete RPMI-1640 media (Invitrogen) supplemented with 25 mM HEPES, L-glutamine, Sodium pyruvate (Sigma), 10% fetal bovine serum, 100 μg/mL penicillin and 100 μg/mL streptomycin (Hyclone) for 24-72 hours in 37° C., 5% CO2 and stimulated with and increasing concentrations of compound 1 and 2. Cells were then washed in PBS and stained with monoclonal antibodies specific for cell surface markers (BD Pharmingen) and analysed with flow cytomtetry using a BD FACS Canto II flow cytometer. All samples were tested in duplicates.
Human peripheral blood mononuclear cells (PBMCs) were purified from healthy donors with Ficoll-Paque density centrifugation. Cells were cultured in complete RPMI-1640 medium (Invitrogen) supplemented with 25 mM HEPES, L-glutamine, Sodium pyruvate (Sigma), 10% fetal bovine serum, 100 μg/mL penicillin and 100 μg/mL streptomycin (Hyclone). Cells were stimulated for 24 h (study 1-4) or 48 h to 1 week (study 5) in 37° C., 5% CO2 with increasing concentrations of compound 1 and 2 in tissue culture plates. The cells were removed from the plate, washed in PBS and analysed for expression of cell specific surface markers and MHC class I with flow cytomtery using monoclonal antibodies from BD Pharmingen and a FACS Canto II flow cytometer.

PBMCs [3] = experiment: Supernatant IL-10 sandwich ELISA; assay type: cell-based, Human; conditions: […] with 100 U/mL IL-2, 48 h and 7 days
Method: Supernatant IL-10 was measured with a standard sandwich ELISA (all antibodies from BD Biosciences) after 48 hours and 7 days incubation with 2.5 μM of compound 1 and 100 U/mL IL-2 (Miltenyi Biotechnologies) in complete RPMI media, 37° C., 5% CO2
Supernatant IL-10 was measured with a standard sandwich ELISA (all antibodies from BD Biosciences) after 48 hours and 7 days incubation with 2.5 uM of compound 1 and 100 U/mL IL-2 (Miltenyi Biotechnologies) in complete RPMI media, 37° C., 5% CO2.
This indicate an immune inhibitory effect under certain conditions (FIG. 5).

[4] = test system: Macrophages from healthy donors; experiment: Cytokine/chemokine secretion from macrophages (cytometric bead assay); assay type: cell-based, Human
Method: FIG. 10: Interferon-gamma secretion (as measured by cytometric bead assay) from macrophages stimulated with indicated compound for 48 h.
(§1) FIG. 11: Chemokine RANTES secretion (as measured by cytometric bead assay) from PBMC or macrophages stimulated with indicated compound for 48 h.
(§2) FIG. 12: IL12p70 secretion (as measured by cytometric bead assay) from PBMC or macrophages stimulated with indicated compound for 48 h.
(§3) FIG. 13: IL1b secretion (as measured by cytometric bead assay) from PBMC, macrophages or CD4 T cells stimulated with indicated compound for 48 h.
Study 9: Macrophages from healthy donors where exposed to compounds 1 or 2 for 48 hours. […] Compound 1 is therefore able to induce IFN-gamma secretion in macrophages from healthy donors.
(§4) Study 10: PBMCs and macrophages where exposed to compounds 1 or 2 for 2 days (FIG. 11).
(§5) Study 11: PBMCs and macrophages where exposed to compounds 1 and 2 for 2 days.
(§6) Study 12: PBMCs, macrophages and CD4+ T cells where exposed to compounds 1 and 2 for 2 days.

PBMCs [5] = experiment: Cytokine/chemokine secretion from PBMCs (cytometric bead assay); assay type: cell-based, Human; conditions: 2 days
Method: as §1, §2, §3, §4, §5, §6

[6] = Body weight of mice after i.v. dosing; assay type: in vivo, C57bl/6 mice; conditions: 5 mg/kg group (not shown)
Method: Study 13: Compound 1 was administered i.v. to C57bl/6 mice at 0.165 mg/kg to 5 mg/kg. CD25+ cell abundance was increased in animals receiving the highest dose of 5 mg/kg (FIG. 14), as was body weight in the same group (not shown).

T1 sequence (O60603 21-784): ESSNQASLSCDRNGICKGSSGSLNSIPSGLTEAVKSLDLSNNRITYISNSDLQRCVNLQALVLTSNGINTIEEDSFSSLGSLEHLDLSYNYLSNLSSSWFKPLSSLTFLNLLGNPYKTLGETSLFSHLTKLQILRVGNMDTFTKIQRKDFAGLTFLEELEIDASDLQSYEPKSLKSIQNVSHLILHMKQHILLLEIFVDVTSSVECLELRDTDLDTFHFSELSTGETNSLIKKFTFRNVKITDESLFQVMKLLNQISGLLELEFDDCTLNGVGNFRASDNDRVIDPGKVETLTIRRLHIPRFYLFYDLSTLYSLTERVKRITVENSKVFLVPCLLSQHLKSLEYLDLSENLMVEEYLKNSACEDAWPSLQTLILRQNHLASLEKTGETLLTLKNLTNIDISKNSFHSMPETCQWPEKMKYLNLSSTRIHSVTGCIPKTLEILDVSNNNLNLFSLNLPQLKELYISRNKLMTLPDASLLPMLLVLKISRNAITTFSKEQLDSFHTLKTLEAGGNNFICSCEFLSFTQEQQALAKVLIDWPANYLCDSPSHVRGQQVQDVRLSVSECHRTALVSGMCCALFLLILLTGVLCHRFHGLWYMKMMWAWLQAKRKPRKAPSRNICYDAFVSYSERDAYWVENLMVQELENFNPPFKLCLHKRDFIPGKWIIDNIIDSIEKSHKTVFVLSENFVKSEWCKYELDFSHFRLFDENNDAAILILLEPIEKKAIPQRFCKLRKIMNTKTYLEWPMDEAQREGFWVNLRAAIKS

CC[C@H]1OC(=O)[C@H](C)[C@@H](O[C@H]2C[C@@H](N(C)C)[C@H](O)[C@@H](C)O2)[C@H](C)[C@@H](O)[C@](C)(O)C[C@@H](C)CN(C)[C@H](C)[C@@H](O)[C@]1(C)O [Compound 1]
antibacterial activity against the bacterial strains tested [1]: no antibacterial activity
lowest concentration at which TLR2 was stimulated (concentrations down to) (human TLR2): 5 µM
OD after addition of 5 μM test article (human TLR2; 5 μM): 0.111 OD
OD after addition of 10 μM test article (human TLR2; 10 μM): 0.202 OD
OD after addition of 20 μM test article (human TLR2; 20 μM): 0.458 OD
activation marker CD69 on CD4+ T cells and B cells ([2]; 1 μM): upregulated
MHC class I (HLA-ABC) on T- and B-cells [2]: upregulation
MHC class II (HLA-DR) on monocytes [2]: upregulation
co-stimulatory molecule CD80 on monocytes [2]: upregulation
production of IL-10 (PBMCs [3]): increased production
IL-1beta secretion, macrophages ([4]; 2 days): increased
IL-12p70 secretion, macrophages ([4]; 2 days): secreted IL-12p70
RANTES expression, macrophages ([4]; 2 days): high expression
IFN-gamma secretion, macrophages ([4]; 48 hours): secreted IFN-gamma
IL-1beta secretion, PBMCs (PBMCs [5]): slightly
IL-12p70 secretion, PBMCs (PBMCs [5]): secreted IL-12p70
RANTES expression, PBMCs (PBMCs [5]): twofold upregulation
body weight [6]: increased
